According to patent US9604925B2, “Class II HMG-CoA reductase inhibitors and methods of use” (Purdue Research Foundation, priority 2012, dated 2017):
Values after ≈ are worked out from the molar mass of the structure shown. Marks after values point to notes of the source that are not given here.

How the values were obtained:
S. aureus HMGR = S. aureus HMGR (Staphylococcus aureus, UniProt Q9FD86); experiment: biochemical
J774A.1 cells = experiment: In vitro cell viability/cytotoxicity MTS assay; assay type: cell-based; conditions: 100 μM, 24 hours
Experimental: Cytotoxicity of the compounds was evaluated using J774A.1 cells (mitochondrial function) in the CellTiter 96® AQueous Non-Radioactive Cell Proliferation Assay (Promega). […] Formazan is measured by measuring the absorbance at 490 nm. Briefly, ˜2×10^4 J774A.1 cells suspended in 200 μL DMEM supplemented with 10% fetal bovine serum (FBS), L-glutamine, NaHCO3, pyridoxine-HCl, and […] glucose and preserved with 1% penicillin-streptomycin solution were seeded in 96-well plates and incubated at 37° C. in a 5% CO2 atmosphere. The cells were cultured for 24 hours (60% confluency) before the assays. The J774A.1 cells were further incubated with 100 μM of compounds (2f, […], 2j, and 2e) and DMSO as a control for 24 hours. The culture media was discarded, and the cells in each well were washed with PBS and re-suspended with 100 μL of cell culture media prior to addition of the assay reagent. The plates were incubated for 4 hours at 37° C. in a humidified 5% CO2 atmosphere. The absorbance at 490 nm was recorded using a 96-well Elisa plate reader (SoftMax ProInc., USA). Results were expressed as the percentage mean absorbance by cells upon incubation with various treatments (compounds 2f, 2j, 2i, and 2e) with respect to incubation with DMSO. The results are expressed as means from six measurements±SD.

[1] = tested on: Bacillus anthracis Sterne strain (34F2); assay type: cell-based
Bacillus subtilis = experiment: Screen and MIC/MBC against Bacillus subtilis; assay type: cell-based
Bacillus cereus = experiment: Screen and MIC/MBC against Bacillus cereus; assay type: cell-based
Listeria monocytogenes = experiment: Screen and MIC/MBC against Listeria monocytogenes; assay type: cell-based
Brucella abortus = assay type: cell-based
[2] = tested on: Candida albicans ATCC 18804; experiment: MIC/MFC against Candida albicans in YM broth; assay type: cell-based; conditions: yeast medium broth
Experimental: Antifungal activities of 22 HMG-CoA Reductase inhibitors were initially tested at 100 μM concentration against Candida albicans ATCC 18804.

[3] = tested on: Staphylococcus aureus ATCC 6538 planktonic organisms (not in biofilm); experiment: MIC/MBC against planktonic S. aureus ATCC 6538; assay type: cell-based
[4] = tested on: Staphylococcus aureus ATCC 6538 adherent organisms (biofilm); experiment: MIC/MBC in adherent-cell biofilm of S. aureus ATCC 6538; assay type: cell-based; conditions: for Adherent organisms (biofilm) MIC^b: S. aureus ATCC 6538, 20 h; for Adherent organisms (biofilm) MBC^b: S. aureus ATCC 6538, regrowth 20 h in antibiotic-free MHB
Experimental: An adherent biofilm for susceptibility testing was formed using a clinical isolate of Staphylococcus aureus (ATCC 6538). S. aureus biofilms were prepared in a tissue culture non-treated polystyrene 96-well plate (Corning) and washed with phosphate-buffered saline (PBS) to remove unbound bacteria. Subsequently, serial twofold dilutions of the compounds in MHB were added to wells containing adherent organisms. The polystyrene plates were incubated for 20 h at 37° C. The MIC was taken as the lowest drug concentration at which observable growth was inhibited.

[5] = tested on: vancomycin resistant Enterococcus faecalis (VRE) ATCC 51299; experiment: MIC/MBC micro dilution against VRE; conditions: VRE ATCC 51299, MHB, 20 hours
[6] = tested on: methicillin-resistant Staphylococcus aureus (MRSA) ATCC 43300; experiment: MIC/MBC micro dilution against MRSA
[7] = tested on: vancomycin intermediate Staphylococcus aureus (VISA) NRS1; experiment: MIC/MBC against clinical VISA isolate
[8] = tested on: clinical methicillin-resistant Staphylococcus aureus (MRSA) isolates; experiment: MIC/MBC against clinical MRSA isolates
MRSA = experiment: Time-kill assay against MRSA in MHB; conditions: 3× MIC
[9] = tested on: C. elegans infected with MRSA; experiment: Treatment of C. elegans infected with MRSA; conditions: MRSA-infected worms, 100 μM

Sequence of S. aureus HMGR (Q9FD86 entry or part of it): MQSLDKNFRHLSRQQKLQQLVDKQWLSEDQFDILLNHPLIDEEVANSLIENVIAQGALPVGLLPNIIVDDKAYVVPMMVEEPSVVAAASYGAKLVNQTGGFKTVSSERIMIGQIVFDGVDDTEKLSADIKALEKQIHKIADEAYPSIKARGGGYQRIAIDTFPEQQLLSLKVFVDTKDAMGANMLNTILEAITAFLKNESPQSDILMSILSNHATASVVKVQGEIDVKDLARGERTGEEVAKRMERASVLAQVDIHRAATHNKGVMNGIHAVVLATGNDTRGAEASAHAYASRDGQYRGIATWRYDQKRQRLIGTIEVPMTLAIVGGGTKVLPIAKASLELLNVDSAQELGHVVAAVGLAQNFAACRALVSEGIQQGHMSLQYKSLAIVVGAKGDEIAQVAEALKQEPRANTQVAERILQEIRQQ

In the case of `CC(C)CCCCc1ccc(NS(=O)(=O)c2ccc(O)c(C(=O)O)c2)cc1` [Compound 2j, 2-hydroxy-5-[N-(4-(5-methylhexyl)phenyl)sulfamoyl]benzoic acid], the IC50 (S. aureus HMGR) is reported as 22 µM, the “percentage mean absorbance at 490 nm (MTS) versus DMSO” value (J774A.1 cells) is reported as “no significant differences in percentage mean absorption” and the “inhibition of growth in initial screen” value ([1]; 100 μM) is reported as “showed inhibition of growth”. For the same compound, the “Bacillus anthracis MBC” value ([1]; MHB) was 32/32, the “Bacillus anthracis MIC” value ([1]; MHB) was 32/32 and the “inhibition of growth in initial screen” value (Bacillus subtilis; 100 μM) was “showed inhibition of growth”. The “Bacillus subtilis MBC” value (Bacillus subtilis; MHB) was 32/32, the “Bacillus subtilis MIC” value (Bacillus subtilis; MHB) was 32/32 and the “inhibition of growth in initial screen” value (Bacillus cereus; 100 μM) was “showed inhibition of growth”. For the same compound, the “Bacillus cereus MBC” value (Bacillus cereus; MHB) was 64/64, the “Bacillus cereus MIC” value (Bacillus cereus; MHB) was 64/64 and the “inhibition of growth in initial screen” value (Listeria monocytogenes; 100 μM) was “showed inhibition of growth”. For the same compound, the “Listeria monocytogenes MBC” value (Listeria monocytogenes; MHB) was 128/>128, the “Listeria monocytogenes MIC” value (Listeria monocytogenes; MHB) was 128/>128 and the “inhibition of growth in initial screen” value (Brucella abortus; 100 μM) was “showed inhibition of growth”. For the same compound, the Brucella abortus (single value, head does not say MIC or MBC) (Brucella abortus; MHB) was 64 µM, the “Candida albicans MFC” value [2] was 128/>128 and the “Candida albicans MIC” value [2] was 128/>128. The “Planktonic organisms (not in biofilm) MBC” value [3] was 64 µM, the “Planktonic organisms (not in biofilm) MIC” value [3] was 64 µM and the “Adherent organisms (biofilm) MIC^b” value [4] was 128 µM. The “Adherent organisms (biofilm) MBC^b” value [4] was 128 µM, the “VRE MBC” value [5] was 128/128 and the “MRSA MBC” value ([6]; MRSA ATCC 43300, MHB, 20 hours, Table 2) was 64/64. It also gave an MBC ([6]; Staphylococcus aureus) of 64 µM (≈ 25.1 µg/mL), an MIC ([6]; Staphylococcus aureus) of 64 µM (≈ 25.1 µg/mL) and an MBC [7] of 16 µM (≈ 6.26 µg/mL). For the same compound, the MIC [7] was 16 µM (≈ 6.26 µg/mL), the MBC ([8]; MRSA / NRS123 / USA400) was 32 µM (≈ 12.5 µg/mL) and the MIC ([8]; MRSA / NRS123 / USA400) was 16 µM (≈ 6.26 µg/mL). For the same compound, the MBC ([8]; MRSA / NRS382 / USA100) was 32 µM (≈ 12.5 µg/mL), the MIC ([8]; MRSA / NRS382 / USA100) was 16 µM (≈ 6.26 µg/mL) and the MBC ([8]; MRSA / NRS383 / USA200) was 32 µM (≈ 12.5 µg/mL). It also gave an MIC ([8]; MRSA / NRS383 / USA200) of 16 µM (≈ 6.26 µg/mL), an MBC ([8]; MRSA / NRS384 / USA300) of 32 µM (≈ 12.5 µg/mL) and an MIC ([8]; MRSA / NRS384 / USA300) of 16 µM (≈ 6.26 µg/mL). For the same compound, the MBC ([8]; MRSA / NRS385 / USA500) was 16 µM (≈ 6.26 µg/mL), the MIC ([8]; MRSA / NRS385 / USA500) was 16 µM (≈ 6.26 µg/mL) and the MBC ([8]; MRSA / NRS386 / USA700) was 16 µM (≈ 6.26 µg/mL). It also gave an MIC ([8]; MRSA / NRS386 / USA700) of 16 µM (≈ 6.26 µg/mL), an MBC ([8]; MRSA / NRS387 / USA800) of 32 µM (≈ 12.5 µg/mL) and an MIC ([8]; MRSA / NRS387 / USA800) of 16 µM (≈ 6.26 µg/mL). It also gave an MBC ([8]; MRSA / NRS483) of 32 µM (≈ 12.5 µg/mL), an MIC ([8]; MRSA / NRS483) of 16 µM (≈ 6.26 µg/mL) and an MBC ([8]; MRSA / NRS484) of 32 µM (≈ 12.5 µg/mL). The MIC ([8]; MRSA / NRS484) was 16 µM (≈ 6.26 µg/mL).

For `CN[C@H](CC(C)C)C(=O)N[C@H]1C(=O)N[C@@H](CC(N)=O)C(=O)N[C@H]2C(=O)N[C@H]3C(=O)N[C@H](C(=O)N[C@H](C(=O)O)c4cc(O)cc(O)c4-c4cc3ccc4O)[C@H](O)c3ccc(c(Cl)c3)Oc3cc2cc(c3O[C@@H]2O[C@H](CO)[C@@H](O)[C@H](O)[C@H]2O[C@H]2C[C@](C)(N)[C@H](O)[C@H](C)O2)Oc2ccc(cc2Cl)[C@H]1O` [Vancomycin, vancomycin, reference compound], the “Adherent organisms (biofilm) MIC^b” value [4] was 2 µM, the “Adherent organisms (biofilm) MBC^b” value [4] was 8 µM and the “time-kill of MRSA cells” value (MRSA) was “failed to reduce the number of CFU by 3-log10 within a 10 hour window”. For the same compound, the “Log CFU/worm” value ([9]; 16 hours treatment) was 3.26 ± 0.20 Log CFU/worm and the “Log Reduction” value ([9]; versus DMSO control) was 1.78*.
